Measurements reported in ChEMBL document CHEMBL4334442, “Effects of Acetylshikonin on the Infection and Replication of Coxsackievirus A16 in Vitro and in Vivo” (J Nat Prod, 2019).
Activity calls are given as the source filed them. The calls are words filed in the database; no cut-off is given here.

Experiments:
[1] = Cytotoxicity against human RD cells assessed as reduction in cell viability after 12 hrs by CCK8 assay; type: cell-based
[2] = tested on: Coxsackievirus A16; test: Antiviral activity against Coxsackievirus A16 TA271 infected in RD cells at preinfection stage assessed as appearance of cell shrinkage at 0.08 uM/L preincubated with cells for 3 hrs followed by viral infection and measured after 1 hr by inverted microscopic analysis; type: functional, cell-based
[3] = tested on: Coxsackievirus A16; test: Antiviral activity against Coxsackievirus A16 TA271 infected in RD cells at preinfection stage assessed as cell fragmentation at 0.08 uM/L preincubated with cells for 3 hrs followed by viral infection and measured after 1 hr by inverted microscopic analysis; type: functional, cell-based
[4] = tested on: Coxsackievirus A16; test: (§1) Antiviral activity against Coxsackievirus A16 TA271 infected in RD cells at replication stage assessed as appearance of cell shrinkage at 0.08 uM/L 1 hr post-infection viral inoculum was removed and cells incubated with medium containing compound and measured after 5 hrs by inverted microscopic analysis; type: functional, cell-based
[5] = tested on: Coxsackievirus A16; test: as §1, with “increase in intracytoplasmic granules” for “appearance of cell shrinkage”; type: functional, cell-based
[6] = tested on: Coxsackievirus A16; test: (§2) Antiviral activity against Coxsackievirus A16 TA271 infected in RD cells at release stage assessed as appearance of rounded cells at 0.08 uM/L preincubated with cells for 1 hr followed by replacement of fresh medium containing compounds after 5 hrs post infection and further incubated for 16 hrs post infection by inverted microscopic analysis; type: functional, cell-based
[7] = tested on: Coxsackievirus A16; test: as §2, with “increase in intracytoplasmic granules” for “appearance of rounded cells”; type: functional, cell-based
[8] = tested on: Coxsackievirus A16; test: Antiviral activity against Coxsackievirus A16 TA271 infected in RD cells assessed as effect on viral load at release stage at 0.08 uM/L preincubated with cells for 1 hr followed by replacement of fresh medium containing compounds for 16 hrs and measured after 48 hrs post infection by RT-PCR analysis; type: functional, cell-based
[9] = tested on: Coxsackievirus A16; test: Antiviral activity against Coxsackievirus A16 TA271 infected in RD cells assessed as log reduction in viral genome copies at 0.08 uM/L preincubated with viral suspension for 2 hrs followed by cell addition and measured at 24 hrs post infection by RT-PCR analysis; type: functional
[10] = tested on: Coxsackievirus A16; test: Antiviral activity against Coxsackievirus A16 LW2 infected in RD cells assessed as reduction in viral genome copies at 0.08 uM/L preincubated with viral suspension for 2 hrs followed by cell addition and measured at 24 hrs post infection by RT-PCR analysis; type: functional, cell-based
[11] = tested on: Coxsackievirus A16; test: Antiviral activity against Coxsackievirus A16 LW614 infected in RD cells assessed as reduction in viral genome copies at 0.08 uM/L preincubated with viral suspension for 2 hrs followed by cell addition and measured at 24 hrs post infection by RT-PCR analysis; type: functional, cell-based
[12] = tested on: Coxsackievirus A16; test: Antiviral activity against Coxsackievirus A16 TA271 infected in ICR mouse assessed as mouse survival at 0.08 uM/L preincubated with viral suspension for 2 hrs followed by intramuscular administration and measured on day 7 post infection relative to control; type: functional; details: Enterovirus A, TA271, im
[13] = Toxicity in ICR mouse infected with Coxsackievirus A16 TA271 assessed as increase in body weight at 2 mg/kg, im and measured every day; type: organism-based; details: in vivo
[14] = Toxicity in ICR mouse infected with Coxsackievirus A16 TA271 assessed as increase in body weight at 0.08 uM/L preincubated with viral suspension for 2 hrs followed by intramuscular administration and measured every day; details: in vivo, im
[15] = tested on: Coxsackievirus A16; test: Antiviral activity against Coxsackievirus A16 TA271 infected in ICR mouse assessed as reduction in viral load in heart at 0.08 uM/L preincubated with viral suspension for 2 hrs followed by intramuscular administration after 3 to 5 days post infection by RT-PCR analysis; type: functional
[16] = tested on: Coxsackievirus A16; test: Antiviral activity against Coxsackievirus A16 TA271 infected in ICR mouse assessed as reduction in viral load in lung at 0.08 uM/L preincubated with viral suspension for 2 hrs followed by intramuscular administration after 3 to 5 days post infection by RT-PCR analysis; type: functional
[17] = tested on: Coxsackievirus A16; test: Antiviral activity against Coxsackievirus A16 TA271 infected in ICR mouse assessed as reduction in viral load in hind limb muscle at 0.08 uM/L preincubated with viral suspension for 2 hrs followed by intramuscular administration after 3 to 5 days post infection by RT-PCR analysis; type: functional
[18] = tested on: Coxsackievirus A16; test: Antiviral activity against Coxsackievirus A16 TA271 infected in ICR mouse assessed as reduction in lesions in heart at 2 mg/kg, im after 5 days post infection by H and E staining based histopathological analysis; type: functional, organism-based
[19] = tested on: Coxsackievirus A16; test: Antiviral activity against Coxsackievirus A16 TA271 infected in ICR mouse assessed as reduction in lesions in spinal muscle at 2 mg/kg, im after 5 days post infection by H and E staining based histopathological analysis; type: functional, organism-based
[20] = tested on: Coxsackievirus A16; test: Antiviral activity against Coxsackievirus A16 TA271 infected in ICR mouse assessed as reduction in inflammatory cell infiltration in lung at 2 mg/kg, im after 5 days post infection by H and E staining based histopathological analysis; type: functional, organism-based
[21] = tested on: Coxsackievirus A16; test: Antiviral activity against Coxsackievirus A16 TA271 infected in ICR mouse assessed as reduction in inflammatory cell infiltration in spinal muscle at 2 mg/kg, im after 5 days post infection by H and E staining based histopathological analysis; type: functional, organism-based
[22] = tested on: Coxsackievirus A16; test: Antiviral activity against Coxsackievirus A16 TA271 infected in ICR mouse assessed as reduction in muscle fiber breakage in lung at 2 mg/kg, im after 5 days post infection by H and E staining based histopathological analysis; type: functional, organism-based
[23] = tested on: Coxsackievirus A16; test: Antiviral activity against Coxsackievirus A16 TA271 infected in ICR mouse assessed as reduction in muscle fiber breakage in spinal muscle at 2 mg/kg, im after 5 days post infection by H and E staining based histopathological analysis; type: functional, organism-based
[24] = tested on: Coxsackievirus A16; test: Antiviral activity against Coxsackievirus A16 TA271 infected in ICR mouse assessed as mild alveolar fibrosis in heart at 2 mg/kg, im after 5 days post infection by H and E staining based histopathological analysis; type: functional, organism-based
[25] = tested on: Coxsackievirus A16; test: Antiviral activity against Coxsackievirus A16 TA271 infected in ICR mouse assessed as mild alveolar fibrosis in hind limb muscle at 2 mg/kg, im after 5 days post infection by H and E staining based histopathological analysis; type: functional, organism-based
[26] = tested on: Coxsackievirus A16; test: Antiviral activity against Coxsackievirus A16 TA271 infected in ICR mouse assessed as mild alveolar wall thickening in lung at 2 mg/kg, im after 5 days post infection by H and E staining based histopathological analysis; type: functional, organism-based
[27] = tested on: Coxsackievirus A16; test: Antiviral activity against Coxsackievirus A16 TA271 infected in ICR mouse assessed as mild alveolar wall thickening in hind limb muscle at 2 mg/kg, im after 5 days post infection by H and E staining based histopathological analysis; type: functional, organism-based
[28] = tested on: Coxsackievirus A16; test: Antiviral activity against Coxsackievirus A16 TA271 infected in ICR mouse assessed as mild alveolar wall thickening in spinal muscle at 2 mg/kg, im after 5 days post infection by H and E staining based histopathological analysis; type: functional, organism-based
[29] = tested on: Coxsackievirus A16; test: Antiviral activity against Coxsackievirus A16 TA271 infected in ICR mouse assessed as reduction in virus-induced IFN-gamma level at 2 mg/kg, im after 3 days post infection by ELISA; type: functional, organism-based
[30] = tested on: Coxsackievirus A16; test: Antiviral activity against Coxsackievirus A16 TA271 infected in ICR mouse assessed as reduction in virus-induced IL-6 level at 2 mg/kg, im after 3 days post infection by ELISA; type: functional, organism-based
[31] = tested on: Mus musculus; test: Effect on IL-6 level in ICR mouse at 2 mg/kg, administered intramuscularly by ELISA; type: functional, organism-based

With `CC(=O)OC(CC=C(C)C)C1=CC(=O)c2c(O)ccc(O)c2C1=O` (stereo unspecified) as the compound, how does the CC50 at 12 h [1] read?
Its CC50 at 12 h is 9.4 µM.

What about the Activity [2] of the same compound?
The Activity was “inactive”.

What about the Activity [3] of the same compound?
Its Activity is “inactive”.

What about the Activity [4] of the same compound?
The Activity was “inactive”.

And the Activity [5]?
Its Activity is “inactive”.

And the Activity [6]?
Its Activity is “inactive”.

What about the Activity [7] of the same compound?
The Activity was “inactive”.

And the Activity [8]?
Its Activity is “inactive”.

And the LCK [9]?
The LCK was over 2.

And the Activity [10]?
Its Activity is “Active”.

And the Activity [11]?
Its Activity is “Active”.

And the survival at 0.08 µM [12]?
The survival at 0.08 µM was 70%.

What about the Activity [13] of the same compound?
The Activity was “Non-Toxic”.

What about the Activity [14] of the same compound?
The Activity was “Non-Toxic”.

What about the Activity [15] of the same compound?
The Activity was “Active”.

What about the Activity [16] of the same compound?
Its Activity is “Active”.

And the Activity [17]?
The Activity was “Active”.

And the Activity [18]?
Its Activity is “Active”.

What about the Activity [19] of the same compound?
Its Activity is “Active”.

And the Activity [20]?
The Activity was “Active”.

What about the Activity [21] of the same compound?
The Activity was “Active”.

And the Activity [22]?
The Activity was “Active”.

And the Activity [23]?
Its Activity is “Active”.

And the Activity [24]?
Its Activity is “Active”.

What about the Activity [25] of the same compound?
Its Activity is “Active”.

And the Activity [26]?
The Activity was “Active”.

What about the Activity [27] of the same compound?
Its Activity is “Active”.

And the Activity [28]?
The Activity was “Active”.

And the Activity [29]?
Its Activity is “Active”.

What about the Activity [30] of the same compound?
Its Activity is “Active”.

What about the Activity [31] of the same compound?
The Activity was “inactive”.
